Values of other authors, collected in patent US7022306B1, “Process for the production of hydrogen” (UOP LLC, priority 2003, dated 2006).
Where two headings read alike, the source gives them in different places.

Tests used:
Rat [1] = system: Rat
Rat [2] = system: Rat; remark: listed apart in the source

C [Methane]
Toxicity LC50 (mg/liter) Inhalation-Rat (Rat [1]): >5 mg/L

CCCCC [Pentane]
Toxicity LD50 (mg/kg) Oral-Rat (Rat [2]): >2000 mg/kg

CC(C)OC(C)C [Isopropylether]
Toxicity LD50 (mg/kg) Oral-Rat (Rat [2]): 8470 mg/kg

OC[C@@H](O)[C@@H](O)[C@H](O)[C@@H](O)CO [Sorbitol]
Toxicity LD50 (mg/kg) Oral-Rat (Rat [2]): 15900 mg/kg

CCCC [Butane]
Toxicity LC50 (mg/liter) Inhalation-Rat (Rat [1]; for 4 hours): 658 for 4 hours mg/liter

CC(C)O [Isopropanol]
Toxicity LD50 (mg/kg) Oral-Rat (Rat [2]): 5045 mg/kg
